Data from US8367873B2, “Phenyl-substituted bicyclooctane-1,3-dione derivatives” (Bayer Cropscience AG, priority 2008, dated 2013).

Experiments:
Type in all cases: in vivo
[1] = tested on: monocotylidonous and dicotylidonous weed and crop plants; assay: Herbicidal pre-emergence action (other test plants); details: pre-emergence method, 80 g/ha, greenhouse, visual assessment vs untreated controls
Method in brief: (§1)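 Seeds sown in sandy loam and covered with soil; WP-formulated compounds applied as aqueous suspension (600 l/ha water, 0.2% wetting agent) to the soil surface at various rates. Greenhouse-grown; emergence damage scored visually after three weeks versus untreated controls (0% = like control, 100% = plants dead).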

[2] = tested on: cereals; assay: Container trials with cereals in the greenhouse, use of safeners (Mefenpyr 1 day prior to herbicide application)
Description: Seeds of monocotylidonous and dicotylidonous weed and crop plants are placed in sandy loam in wood fibre pots, covered with soil and cultivated in a greenhouse under good growth conditions. Two to three weeks after sowing, the test plants are treated at the one-leaf stage. The test compounds, formulated as wettable powders (WP), are then with a water application rate of 600 l/ha (converted), with 0.2% of wetting agent added, sprayed onto the green parts of the plants in different amounts. After the test plants have been kept in the greenhouse under optimum growth conditions for about three weeks, the effect of the preparations is assessed visually in comparison to untreated controls (herbicidal effect in percent: 100% effect=the plants have died, 0% effect=like control plants).
If it is to be additionally tested as to whether safeners can improve the plant compatibility of test substances in the case of crop plants, the following options are used for applying the safeners: • Seeds of the crop plants are, before sowing, dressed with safener substance (the amount of safener stated in percent, based on the weight of the seed) • Before the application of the test substances, the crop plants are sprayed with the safener at a certain application rate per hectare (usually one day before the application of the test substances) • The safener is applied together with the test substance as a tank mix (the amount of safener stated in g/ha or as a ratio, based on the herbicide).
Container Trials with Cereals in the Greenhouse

[3] = tested on: Lolium multiflorum; assay: Herbicidal post-emergence action; details: post-emergence method, 80 g/ha
Method in brief: (§2)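 Greenhouse plants in sandy loam sprayed at the one-leaf stage, 2-3 weeks after sowing, with WP-formulated compound at varied rates in 600 l/ha water plus 0.2% wetting agent. Damage scored visually after about three weeks as percent effect versus untreated controls (100% = dead).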

[4] = tested on: Alopecurus myosuroides; assay: Herbicidal post-emergence action; details: post-emergence method, 80 g/ha
Method in brief: as §2

[5] = tested on: Echinocloa crus-galli; assay: Herbicidal post-emergence action; details: post-emergence method, 80 g/ha
Method in brief: as §2

[6] = tested on: Setaria viridis; assay: Herbicidal post-emergence action; details: post-emergence method, 80 g/ha
Method in brief: as §2

[7] = tested on: Lolium multiflorum; assay: Herbicidal pre-emergence action; details: pre-emergence method, 80 g/ha, greenhouse, visual assessment vs untreated controls
Method in brief: as §1

[8] = tested on: Alopecurus myosuroides; assay: Herbicidal pre-emergence action; details: pre-emergence method, 80 g/ha, greenhouse, visual assessment vs untreated controls
Method in brief: as §1

[9] = tested on: Echinocloa crus-galli; assay: Herbicidal pre-emergence action; details: pre-emergence method, 80 g/ha, greenhouse, visual assessment vs untreated controls
Method in brief: as §1

[10] = tested on: Setaria viridis; assay: Herbicidal pre-emergence action; details: pre-emergence method, 80 g/ha, greenhouse, visual assessment vs untreated controls
Method in brief: as §1

[11] = tested on: monocotylidonous and dicotylidonous weed and crop plants; assay: Herbicidal post-emergence action (other test plants); details: post-emergence method, 80 g/ha
Method in brief: as §2

[12] = 10 days after application, 12.5 g of a.i./ha
[13] = 10 days after application, 25 g of a.i./ha
[14] = 10 days after application, 50 g of a.i./ha
[15] = 28 days after application, 50 g of a.i./ha
[16] = 28 days after application, 100 g of a.i./ha
[17] = 28 days after application, 12.5 g of a.i./ha
[18] = 28 days after application, 25 g of a.i./ha

Row | Structure (SMILES) | herbicidal effect AVEFA [1] [%] | Summer wheat observed (%) [2, 12] [%] | Summer wheat observed (%) [2, 13] [%] | Summer wheat observed (%) [2, 14] [%] | herbicidal effect against LOLMU (Lolium multiflorum) [3] [%] | herbicidal effect against ALOMY (Alopecurus myosuroides) [4] [%] | herbicidal effect against ECHCG (Echinochloa crus-galli) [5] [%] | herbicidal effect against SETVI (Setaria viridis) [6] [%] | herbicidal effect LOLMU [7] [%] | herbicidal effect ALOMY [8] [%] | herbicidal effect ECHCG [9] [%] | herbicidal effect SETVI [10] [%] | herbicidal effect against AVEFA (Avena fatua) [11] [%] | Summer barley observed (%) [2, 15] [%] | Summer barley observed (%) [2, 16] [%] | Summer wheat observed (%) [2, 17] [%] | Summer wheat observed (%) [2, 18] [%] | Summer wheat observed (%) [2, 15] [%] | Summer barley observed (%) [2, 18] [%] | Summer wheat observed (%) [2, 16] [%] | other results
1 | CCc1cc(C)cc(CC)c1C1=C(O)C2CC3(CC2C1=O)OCC(C)O3 (mixture of isomers) [I-a-10] | 50 | 30 | 50 | 60 | 100 | 90 | 100 | 90 | 100 | 70 | 80 | 60 | 80 |  |  |  |  |  |  |  | 
2 | CCOC(=O)OC1=C(c2c(CC)cc(C)cc2CC)C(=O)C2CC3(CC12)OC(C)CC(C)O3 (mixture of isomers) [I-c-10] | 80 |  |  |  | 100 | 90 |  | 90 | 100 | 100 | 100 | 90 | 100 | 50 | 95 | 15 | 50 | 95 |  |  | 
3 | CCc1cc(C)cc(CC)c1C1=C([O-])C2CC3(CC2C1=O)OC(C)CC(C)O3.[Na+] (mixture of isomers) [I-f-19] | 60 |  |  |  | 100 | 100 | 100 | 100 | 100 | 100 | 100 | 100 | 100 | 20 | 50 | 20 | 90 | 97 | 10 | 99 | Summer barley observed (%) [2, 17]: 10%
4 | CCc1cc(C)cc(CC)c1C1=C(O)[C@H]2CC3(C[C@H]2C1=O)OCCCO3 (relative stereo) [I-a-11] | 50 | 30 | 50 | 70 | 100 | 90 | 100 | 100 | 100 | 90 | 100 | 70 | 90 | 8 | 10 | 10 | 50 | 60 |  | 70 | 
5 | CCc1cc(C)cc(CC)c1C1=C(O)[C@H]2CC3(C[C@H]2C1=O)OCCCCO3 (relative stereo) [I-a-13] | 80 | 40 | 50 | 60 | 100 | 90 | 100 | 90 | 100 | 90 | 100 | 90 | 90 |  |  |  |  |  |  |  | 
6 | CCc1cc(C)cc(CC)c1C1=C(O)[C@H]2CC3(C[C@H]2C1=O)OCC=CCO3 (relative stereo) [I-a-14] | 80 | 50 | 60 | 60 | 100 | 90 | 100 | 100 | 100 | 100 | 100 | 90 | 90 | 10 | 20 | 10 | 30 | 30 | 8 | 70 | Summer barley observed (%) [2, 17]: 5%
7 | CCc1cc(C)cc(C)c1C1=C(O)C2CC3(CC2C1=O)OCCCO3 (stereo not shown) [I-a-58] | 70 |  |  |  | 100 | 100 | 100 | 100 | 100 | 70 | 100 | 100 |  | 10 | 15 | 10 | 15 | 20 | 5 | 60 | 
8 | C=C1CC2C(=O)C(c3c(CC)cc(C)cc3CC)=C([O-])C2C1.[Na+] (stereo not shown) [I-f-21] | 70 |  |  |  | 100 | 80 | 100 | 100 | 100 | 90 | 100 | 90 | 80 |  |  |  |  |  |  |  | 
